# According to patent US20210069351A1, “METHOD FOR SCREENING PAIN INHIBITING SUBSTANCE” (priority 2017, published 2021):
# Tests used:
# [1] = Stability of GABA and glutamate test samples under storage, treatment and analysis conditions; format: physicochemical
# Protocol: The test samples were stored in a freezer at −70° C., and thawed at room temperature before use. 20 μL of microdialysate was added to 20 μL of acetonitrile, well mixed (vortexing, 30 sec) and centrifuged at 3,000 rpm for 5 minutes. A supernatant was taken and injected by 5 μL for LC-MS/MS analysis.
# Stability was tested under various conditions for which GABA and a glutamate test sample could be exposed.
# β-endorphin = experiment: Neuropeptide and cytokine concentrations in spinal cord dorsal horn microdialysate after pregabalin; format: in vivo, rat; conditions: 30 mg/kg pregabalin, neuropathic pain model and control
# Source text: Spared nerve injury (SNI) models were used to assess the concentration of a pain indicator substance present in a dorsal horn in the spinal cord. To generate an efficient neuropathic pain model, the rats were anesthetized under 3% isoflurane (Hana Pharm., South Korea), after incision on the left hind of the rat leg the common peroneal and the tibial nerve of three peripheral nerve branches in the sciatic nerve were axotomized and the sural nerve was spared then the surgical site was closed (FIG. 1). After surgery, animals were placed in the home cage to recover. 2 weeks after surgery, hypersensitivity will occur in the lateral area of the rat left hind paw.
# Before inserting microdialysis probe into the tissue, the probe was immersed in 70% ethanol and washed for 15 minutes at the flow rate of 3.5 ul/min. Then, the probe was immersed in distilled water and washed for 15 minutes in the same protocol. When the washing step was completed, the probe was inserted at a depth of approximately 2 mm into the dorsal horn of the L1 spinal cord (FIG. 4). […]
# For analysis of the neuropeptide and cytokine of the test samples was used using “Luminex 200 multiplex system” by multiplex cytokines assay. Ten most important of pain-related neuropeptides such as IFN-gamma, IL-1 beta, IL-6, IL-10, TNF-α, MCP-1, MIP-1α, BDNF, substance P and β-endorphin and cytokines were analyzed using a total of 4 kits.
compound,measurement,setting,value
"N[C@@H](CCC(=O)O)C(=O)O [Glutamate, glutamate]","Remaining, freeze/thaw","[1]; 3 cycles, 20 ng/mL",104.1%
same,"Remaining, freeze/thaw","[1]; 3 cycles, 100 ng/mL",100.8%
same,"Remaining, freeze/thaw","[1]; 3 cycles, 800 ng/mL",101.9%
same,"Remaining, autosampler tray","[1]; 4° C. for 6 h, 20 ng/mL",106.5%
same,"Remaining, autosampler tray","[1]; 4° C. for 6 h, 100 ng/mL",102.3%
same,"Remaining, autosampler tray","[1]; 4° C. for 6 h, 800 ng/mL",101.1%
same,"Remaining, microdialysis sample at RT","[1]; RT for 6 h, 20 ng/mL",101.3%
same,"Remaining, microdialysis sample at RT","[1]; RT for 6 h, 100 ng/mL",97.3%
same,"Remaining, microdialysis sample at RT","[1]; RT for 6 h, 800 ng/mL",99.8%
same,"Remaining, long term stability","[1]; −70° C. 1 month, 20 ng/mL",104.2%
same,"Remaining, long term stability","[1]; −70° C. 1 month, 100 ng/mL",98.6%
same,"Remaining, long term stability","[1]; −70° C. 1 month, 800 ng/mL",96.0%
"NCCCC(=O)O [GABA, γ-aminobutyric acid]","Remaining, freeze/thaw",[1]; 20 ng/mL,103.1%
same,"Remaining, freeze/thaw",[1]; 100 ng/mL,106.7%
same,"Remaining, freeze/thaw",[1]; 800 ng/mL,101.6%
same,"Remaining, long term stability","[1]; 1 month, 20 ng/mL",101.8%
same,"Remaining, long term stability","[1]; 1 month, 100 ng/mL",102.3%
same,"Remaining, long term stability","[1]; 1 month, 800 ng/mL",97.7%
same,"Remaining, autosampler tray","[1]; 6 h, 20 ng/mL",105.4%
same,"Remaining, microdialysis sample at RT","[1]; 6 h, 20 ng/mL",105.3%
same,"Remaining, autosampler tray","[1]; 6 h, 100 ng/mL",101.2%
same,"Remaining, microdialysis sample at RT","[1]; 6 h, 100 ng/mL",100.6%
same,"Remaining, autosampler tray","[1]; 6 h, 800 ng/mL",92.1%
same,"Remaining, microdialysis sample at RT","[1]; 6 h, 800 ng/mL",91.8%
CC(C)C[C@H](CN)CC(=O)O [pregabalin],concentrations of β-endorphin in microdialysate,β-endorphin,significantly increased and then decreased
